Assay results published in patent publication US7611848B2, “Method for selecting allosteric regulators of class III G protein-coupled receptors” (Centre National de la Recherche Scientifique (CNRS), priority 2003, dated 2009).
Values belong to the molecule of their own block, whether it stands above or below them.

Experiments:
[1] = test system: deltaGB2s (truncated GABAB2 (GB2) subunit); experiment: IP production in HEK293 cells transiently expressing deltaGB2s receptor and chimeric G protein Gqi9; assay type: cell-based; conditions: deltaGB2s with Gqi9, FIG. 9
From the text: FIG. 9: Graph representing the dose-effect of CGP7930 on the deltaGB2s receptor, in HEK293 cells transiently expressing this receptor, and also the chimeric G protein Gqi9 that allows coupling of this receptor to the phospholipase C activation pathway. The results correspond to the ratio of the production of IP to the radioactivity remaining in the membranes.
The protocol described in section A.I. above, concerning the mGlu5 receptor, was applied mutatis mutandis to the mGlu1 and mGlu2 receptors and to the GB2 subunit.
For this, GPCRs-III for which positive allosteric modulators have been described were chosen: the mGlu1 receptor (Ro01-6128) (Knoflach et al., 2001), the mGlu2 receptor (LY487379) (Schaffhauser et al., 2003), and the GABAB2 (GB2) subunit of the GABAB receptor (CGP7930) (Urwyler et al., 2001). The receptors truncated with respect to their extracellular and intracellular portions are named, respectively, delta1s, delta2s and deltaGB2s and were expressed transiently in HEK293 cells.
In order to allow the delta2s and deltaGB2s receptors to activate the phospholipase C, and therefore to increase the production of inositol phosphates, these two receptors were coexpressed with the chimeric G protein Gqi9 as described above (Gomeza et al., 1996; Franek et al., 1999).

[2] = target: heterodimeric receptor GABAB (GB1 and GB2 subunits) (Homo sapiens, UniProt O75899); conditions: literature (Urwyler et al., 2001); cited from earlier work
[3] = target: T1, mGlu5ΔS protein (heptahelical domain of the mGlu5 receptor) (Rattus norvegicus, UniProt P31424); experiment: IP production in HEK293 cells transiently expressing truncated mGlu5ΔS protein; assay type: cell-based
T1 construct: between residue P568, located 11 residues before the first transmembrane domain, and residue L864; signal peptide of the mGlu5 receptor (N); expressed in transfected cells; host or cells: HEK293
T1 sequence (P31424 568-864, stated change not applied): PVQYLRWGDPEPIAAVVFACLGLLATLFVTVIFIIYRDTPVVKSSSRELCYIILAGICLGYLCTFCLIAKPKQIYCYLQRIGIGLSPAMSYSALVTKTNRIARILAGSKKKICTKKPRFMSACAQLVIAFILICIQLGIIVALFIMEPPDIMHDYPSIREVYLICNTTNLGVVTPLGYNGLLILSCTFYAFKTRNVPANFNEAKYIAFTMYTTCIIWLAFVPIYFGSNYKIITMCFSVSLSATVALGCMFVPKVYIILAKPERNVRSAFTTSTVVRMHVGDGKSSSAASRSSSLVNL
From the text: (§1) The results correspond to the ratio of the production of IP to the radioactivity remaining in the membranes, and are expressed as percentage baseline production of IP.
(§2) The results correspond to the ratio of the production of IP to the radioactivity remaining in the membranes.
(§3) In the context of the invention, the measurement of the level of activity of the GPCR-III-A can be carried out by any conventional method known to those skilled in the art that is suitable for measuring the activity of a GPCR-III. Among these methods, mention may be made, by way of example, of measurement of the level of production of inositol phosphates (IPs; see Experimental Section, below; Berridge, 1983; Brandish et al., 2003), measurement of […] (Milligan, 2003), measurement of intracellular calcium signals using fluorescent markers such as Fluo3 or Fluo4, and measurement of cAMP production, the latter two methods being conventional and well known to those skilled in the art.
The portion of the cDNA of the mGlu5 receptor encoding its heptahelical domain between residue P568, located 11 residues before the first transmembrane domain, and residue L864, located 37 residues after the 7th transmembrane domain, was amplified by PCR (primers SEQ ID No.1 and SEQ ID No.2), including, respectively, the restriction sites of the Mlu-I and Xba-I enzymes at the 5′ and 3′ ends (FIG. 2). The PCR product thus obtained was digested with the Mlu-I and Xba-I enzymes, subcloned into the vector pRK5-NHA (FIG. 2), and digested with the same enzymes. The plasmid pRK5-NHA was obtained from the plasmid pRKG5a-NHA (Ango et al., 1999), by replacing the sequence encoding the mGlu5 receptor, from the end of the HA tag to the XbaI restriction site, with an MluI restriction site.

wild-type mGlu5 receptor = target: T2, wild-type mGlu5 receptor (Rattus norvegicus, UniProt P31424); experiment: IP production in HEK293 cells transiently expressing wild-type mGlu5 receptor; assay type: cell-based
T2 construct: expressed in transfected cells; host or cells: HEK293
T2 sequence (P31424 21-1171 isoform P31424-2 limits assumed): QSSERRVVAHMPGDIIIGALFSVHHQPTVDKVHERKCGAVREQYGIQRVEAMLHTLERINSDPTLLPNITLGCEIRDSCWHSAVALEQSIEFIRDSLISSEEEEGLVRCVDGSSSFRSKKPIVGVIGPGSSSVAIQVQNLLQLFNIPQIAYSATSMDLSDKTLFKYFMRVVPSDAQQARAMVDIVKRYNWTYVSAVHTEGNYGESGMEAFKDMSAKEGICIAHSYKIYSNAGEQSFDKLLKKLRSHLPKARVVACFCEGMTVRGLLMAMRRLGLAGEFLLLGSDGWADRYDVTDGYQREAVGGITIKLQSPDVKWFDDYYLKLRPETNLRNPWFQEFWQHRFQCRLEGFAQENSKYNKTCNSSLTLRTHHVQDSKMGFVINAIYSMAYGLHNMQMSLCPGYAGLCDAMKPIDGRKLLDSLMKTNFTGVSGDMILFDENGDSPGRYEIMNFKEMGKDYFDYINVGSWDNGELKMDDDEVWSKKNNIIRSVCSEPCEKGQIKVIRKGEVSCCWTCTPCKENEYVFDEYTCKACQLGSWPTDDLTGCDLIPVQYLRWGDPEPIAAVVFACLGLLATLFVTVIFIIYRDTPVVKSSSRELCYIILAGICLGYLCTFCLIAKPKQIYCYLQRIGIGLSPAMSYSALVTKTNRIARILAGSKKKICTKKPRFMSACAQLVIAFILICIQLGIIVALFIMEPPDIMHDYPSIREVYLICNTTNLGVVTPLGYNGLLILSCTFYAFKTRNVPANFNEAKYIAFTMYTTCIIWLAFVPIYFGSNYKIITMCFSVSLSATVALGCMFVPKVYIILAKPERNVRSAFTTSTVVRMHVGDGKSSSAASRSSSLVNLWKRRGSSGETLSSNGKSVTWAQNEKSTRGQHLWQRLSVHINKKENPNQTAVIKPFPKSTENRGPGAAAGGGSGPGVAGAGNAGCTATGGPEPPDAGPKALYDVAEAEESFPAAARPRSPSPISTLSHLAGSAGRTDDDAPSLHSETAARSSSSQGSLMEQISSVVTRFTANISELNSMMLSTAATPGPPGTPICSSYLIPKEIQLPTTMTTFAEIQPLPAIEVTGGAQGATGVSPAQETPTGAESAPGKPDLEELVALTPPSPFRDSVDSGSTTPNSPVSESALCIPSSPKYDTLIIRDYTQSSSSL
From the text: as §2, §1, §3
DFB has recently been described as a positive allosteric regulator of the mGlu5 receptor (Williams et al., 2002). In order to test its effect on the mGlu5ΔS protein, DFB was synthesized by F. Acher (UMR University R. Descartes, rue des Saints Peres, Paris 5).
The data correspond to the mean±standard deviation of the mean of (n) experiments.

mGlu2 receptor = mGlu2 receptor (Homo sapiens, UniProt Q14416); conditions: literature; cited from earlier work
mGlu2 receptor, sequence (Q14416 19-872): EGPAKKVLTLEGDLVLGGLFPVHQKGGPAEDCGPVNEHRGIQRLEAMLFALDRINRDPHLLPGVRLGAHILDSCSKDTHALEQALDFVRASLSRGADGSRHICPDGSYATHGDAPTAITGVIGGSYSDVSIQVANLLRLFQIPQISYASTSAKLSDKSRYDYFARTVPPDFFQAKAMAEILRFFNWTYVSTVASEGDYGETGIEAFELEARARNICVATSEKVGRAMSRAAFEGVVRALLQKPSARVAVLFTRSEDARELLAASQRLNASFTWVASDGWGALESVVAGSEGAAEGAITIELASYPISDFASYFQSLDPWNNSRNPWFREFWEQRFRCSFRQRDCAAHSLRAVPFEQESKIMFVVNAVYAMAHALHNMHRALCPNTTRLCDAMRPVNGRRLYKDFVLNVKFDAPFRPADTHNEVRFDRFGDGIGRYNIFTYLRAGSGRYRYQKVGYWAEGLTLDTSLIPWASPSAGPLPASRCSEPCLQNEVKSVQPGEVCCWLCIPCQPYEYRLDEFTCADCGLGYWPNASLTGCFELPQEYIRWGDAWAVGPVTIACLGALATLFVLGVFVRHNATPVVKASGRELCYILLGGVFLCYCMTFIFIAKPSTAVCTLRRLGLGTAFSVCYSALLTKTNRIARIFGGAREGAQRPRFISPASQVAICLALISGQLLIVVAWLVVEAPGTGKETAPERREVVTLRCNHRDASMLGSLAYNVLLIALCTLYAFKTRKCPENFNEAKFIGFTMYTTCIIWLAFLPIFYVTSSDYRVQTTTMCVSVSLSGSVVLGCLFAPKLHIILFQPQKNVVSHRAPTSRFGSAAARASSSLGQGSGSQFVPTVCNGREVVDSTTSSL

mGlu1 receptor = mGlu1 receptor (Rattus norvegicus, UniProt P23385); conditions: literature; cited from earlier work
mGlu1 receptor, sequence (P23385 19-1199): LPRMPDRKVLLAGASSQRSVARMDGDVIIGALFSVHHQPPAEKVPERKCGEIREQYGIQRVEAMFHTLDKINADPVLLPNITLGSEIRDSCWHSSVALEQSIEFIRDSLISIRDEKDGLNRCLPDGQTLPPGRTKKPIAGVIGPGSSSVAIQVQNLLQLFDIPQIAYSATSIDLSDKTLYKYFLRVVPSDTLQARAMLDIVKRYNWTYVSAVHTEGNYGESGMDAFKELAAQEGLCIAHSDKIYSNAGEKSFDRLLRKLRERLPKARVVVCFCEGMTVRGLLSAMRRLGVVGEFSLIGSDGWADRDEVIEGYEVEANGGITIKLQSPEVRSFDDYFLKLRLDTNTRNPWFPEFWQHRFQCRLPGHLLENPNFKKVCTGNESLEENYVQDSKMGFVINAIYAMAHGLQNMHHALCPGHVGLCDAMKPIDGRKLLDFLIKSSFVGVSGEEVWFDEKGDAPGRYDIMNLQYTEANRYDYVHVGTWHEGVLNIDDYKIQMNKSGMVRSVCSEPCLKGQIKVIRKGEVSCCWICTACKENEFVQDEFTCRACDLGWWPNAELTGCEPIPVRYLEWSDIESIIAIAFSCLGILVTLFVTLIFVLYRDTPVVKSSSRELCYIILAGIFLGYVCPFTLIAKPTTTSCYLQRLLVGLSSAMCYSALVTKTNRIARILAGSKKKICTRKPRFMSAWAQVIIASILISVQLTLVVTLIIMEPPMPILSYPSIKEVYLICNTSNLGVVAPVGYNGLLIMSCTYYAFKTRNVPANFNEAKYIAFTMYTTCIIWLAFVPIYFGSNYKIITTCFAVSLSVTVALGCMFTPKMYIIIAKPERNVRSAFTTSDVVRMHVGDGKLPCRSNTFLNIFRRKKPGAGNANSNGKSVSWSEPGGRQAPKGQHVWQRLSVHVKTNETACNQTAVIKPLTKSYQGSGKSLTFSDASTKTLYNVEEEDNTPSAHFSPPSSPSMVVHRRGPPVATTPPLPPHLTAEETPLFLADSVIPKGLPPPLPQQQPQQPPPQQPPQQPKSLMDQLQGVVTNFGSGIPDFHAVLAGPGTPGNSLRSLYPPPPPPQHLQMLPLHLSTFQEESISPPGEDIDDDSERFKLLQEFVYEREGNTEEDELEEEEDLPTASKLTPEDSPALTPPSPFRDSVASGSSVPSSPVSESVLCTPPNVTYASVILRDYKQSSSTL

Molecule: CC(C)(CO)Cc1cc(C(C)(C)C)c(O)c(C(C)(C)C)c1 [CGP7930, 2,6-Di-tert.-butyl-4-4-(3-hydroxy-2,2-dimethyl-propyl)-phenol]
- stimulation of truncated construct (IP production) [1]: strongly stimulates
- agonist activity on heterodimeric GABAB receptor [2]: weak agonist activity

Molecule: Fc1cccc(/C=N/N=C/c2cccc(F)c2)c1 [DFB]
- effect on IP production of compound alone (agonist behaviour) ([3]; cells expressing mGlu5ΔS): stimulated IP production
- EC50 ([3]; compound alone on mGlu5ΔS, n=3, read-out: EC50 for stimulation of IP production): 8 ± 3 µM
- activation of the wild-type mGlu5 receptor by compound alone (wild-type mGlu5 receptor; glutamate kept as low as possible by coexpression of EAAC1 and addition of GPT with pyruvate (2 mM)): did not significantly activate
- EC50 (wild-type mGlu5 receptor; in the presence of a low concentration of agonist, read-out: EC50 for dose-dependent increase of IP production): 1.81 ± 1.04 µM

Molecule: COc1ccccc1Oc1ccc(N(Cc2cccnc2)S(=O)(=O)CC(F)(F)F)cc1 [LY487379]
- agonist effect when applied alone (mGlu2 receptor): no agonist effect
- potentiation of the effect of agonists (mGlu2 receptor): potentiate the effect of agonists

Molecule: Cc1cccc(C#Cc2ccccc2)n1 [MPEP, 2-Methyl-6-(phenylethynyl)pyridine]
- inhibition of the effect of DFB ([3]; mGlu5ΔS cells treated with 300 μM of DFB (FIG. 6B)): inhibited
- inhibition of the effect of DFB (wild-type mGlu5 receptor; wild-type receptor, data not shown): inhibited

Molecule: CCOC(=O)NC(=O)C(c1ccccc1)c1ccccc1 [Ro01-6128]
- agonist effect when applied alone (mGlu1 receptor): no agonist effect
- potentiation of the effect of agonists (mGlu1 receptor): potentiate the effect of agonists

- effect of glutamate on IP production (wild-type mGlu5 receptor; 100 μM glutamate (FIG. 3), wild-type mGlu5): stimulated IP production
Molecule: glutamate
